Test results taken from article PMC9218946, “Identification of a Subtype-Selective Allosteric Inhibitor of GluN1/GluN3 NMDA Receptors” (Frontiers in Pharmacology, 2022).

Tests used:
Assay type in all cases: cell-based
[1] = target: T1, native GluN1/GluN3 receptors (Rattus norvegicus, UniProt P35439+Q9R1M7); assay: Whole-cell patch-clamp, glycine-induced currents after CGP-78608 in acutely isolated hippocampal neurons; settings: 10 μM WZB117; glycine-induced currents after incubation with CGP-78608
T1 construct: endogenous in cells; host or cells: acutely isolated hippocampal neurons, Sprague-Dawley rats P7-14
Protocol: Hippocampal neurons were obtained from Sprague-Dawley rats (aged P7-14). Briefly, the isolated hippocampal tissues were cut into approximately […] slices along the sagittal plane and were digested with 3 mg/ml proteinase (Sigma-Aldrich) at 32°C for 8 min. Then 1 mg/ml bovine serum albumin (Sangon Biotech) and 1 mg/ml trypsin inhibitor (Sigma-Aldrich) were used to stop the digestion. A few slices of the hippocampus were gently blown into single cells with the dissecting solution, then transferred to a dish and left to rest for 20 min before experiments. The dishes were preprocessed. Essentially, the bottom of the dish was covered with discarded cell suspension the day before the experiment and was washed and dried the next day, which prevented the neurons from sticking to the bottom too tightly. The dissecting solution contained (in mM): 82 Na2SO4, 30 K2SO4, 5 MgCl2, 1 Na pyruvate, 10 HEPES, and 20 glucose. The pH was adjusted to 7.2 using NaOH ([Xie et al., 2020]).
Whole-cell patch-clamp recordings were performed at room temperature (22–25°C) using an EPC-10 amplifier and Patch Master Software (HEKA). Pipettes were pulled from borosilicate glass capillaries (World Precision Instruments), and the resistances were 3–5 MΩ when filled with the intracellular solution. […]

GluN1/GluN2A = target: T2, GluN1/GluN2A (Homo sapiens, UniProt Q05586+Q12879); assay: GluN1/GluN2A currents (data analyzed from Figure 3D, TEVC in Xenopus oocytes); settings: 30 μM WZB117
T2 construct: expressed in transfected cells; host or cells: Xenopus oocytes
Protocol: (§1) Two-electrode voltage-clamp (TEVC) recordings were performed on Xenopus oocytes expressing various subtypes of recombinant NMDARs. Each oocyte was injected with a mixture of 0.5–1.0 ng cDNAs or cRNAs encoding wild-type (WT) or mutant GluN1 (GluN1-1a or GluN1-4a) and GluN2 (2A-2D) or GluN3 (3A-3B) at a ratio of 1:1. The mutant GluN1-4a ^F484A/T518L was injected together with GluN3B to boost the currents of GluN1/GluN3B receptors, and WT GluN1-1a was used unless otherwise stated. The cRNAs of GluN1-4a, GluN3A and GluN3B were transcribed from corresponding DNAs using the mMESSAGE mMACHINE T7 Ultra kit (Life Technologies) according to the manufacturer’s instructions, and the others not specified were cDNAs. TEVC recording was performed 24–72 h post injection in extracellular solution containing (in mM): 100 NaCl, 0.3 BaCl2, 2.5 KCl, 0.01 DTPA and 5 HEPES, and the pH was adjusted to 7.3 using NaOH. All recordings were carried out at a holding potential of −60 mV.
Supplementary Figure S3 Effects of WZB117 on currents from HEK-293 cells co-expressing GluN1/GluN2A/GluN3A subunits. GluN1/GluN2A/GluN3A receptors were expressed on HEK-293 cells at a ratio of GluN1-EGFP: GluN2A: GluN3A = 1:1:2. The GluN1/GluN2A/GluN3A receptors were stimulated by 100 μM glutamate and 100 μM glycine. The data of GluN1/GluN2A were analyzed from Figure 3D. […]

[2] = system: GluN1/GluN2 (2A-2D) receptors; assay: TEVC recording in Xenopus oocytes expressing GluN1/GluN2 (2A-2D); settings: 30 μM WZB117; 100 μM glycine and 100 μM glutamate coapplied
Protocol: as §1

T2 sequence (Q12879 23-1464, other chains not shown): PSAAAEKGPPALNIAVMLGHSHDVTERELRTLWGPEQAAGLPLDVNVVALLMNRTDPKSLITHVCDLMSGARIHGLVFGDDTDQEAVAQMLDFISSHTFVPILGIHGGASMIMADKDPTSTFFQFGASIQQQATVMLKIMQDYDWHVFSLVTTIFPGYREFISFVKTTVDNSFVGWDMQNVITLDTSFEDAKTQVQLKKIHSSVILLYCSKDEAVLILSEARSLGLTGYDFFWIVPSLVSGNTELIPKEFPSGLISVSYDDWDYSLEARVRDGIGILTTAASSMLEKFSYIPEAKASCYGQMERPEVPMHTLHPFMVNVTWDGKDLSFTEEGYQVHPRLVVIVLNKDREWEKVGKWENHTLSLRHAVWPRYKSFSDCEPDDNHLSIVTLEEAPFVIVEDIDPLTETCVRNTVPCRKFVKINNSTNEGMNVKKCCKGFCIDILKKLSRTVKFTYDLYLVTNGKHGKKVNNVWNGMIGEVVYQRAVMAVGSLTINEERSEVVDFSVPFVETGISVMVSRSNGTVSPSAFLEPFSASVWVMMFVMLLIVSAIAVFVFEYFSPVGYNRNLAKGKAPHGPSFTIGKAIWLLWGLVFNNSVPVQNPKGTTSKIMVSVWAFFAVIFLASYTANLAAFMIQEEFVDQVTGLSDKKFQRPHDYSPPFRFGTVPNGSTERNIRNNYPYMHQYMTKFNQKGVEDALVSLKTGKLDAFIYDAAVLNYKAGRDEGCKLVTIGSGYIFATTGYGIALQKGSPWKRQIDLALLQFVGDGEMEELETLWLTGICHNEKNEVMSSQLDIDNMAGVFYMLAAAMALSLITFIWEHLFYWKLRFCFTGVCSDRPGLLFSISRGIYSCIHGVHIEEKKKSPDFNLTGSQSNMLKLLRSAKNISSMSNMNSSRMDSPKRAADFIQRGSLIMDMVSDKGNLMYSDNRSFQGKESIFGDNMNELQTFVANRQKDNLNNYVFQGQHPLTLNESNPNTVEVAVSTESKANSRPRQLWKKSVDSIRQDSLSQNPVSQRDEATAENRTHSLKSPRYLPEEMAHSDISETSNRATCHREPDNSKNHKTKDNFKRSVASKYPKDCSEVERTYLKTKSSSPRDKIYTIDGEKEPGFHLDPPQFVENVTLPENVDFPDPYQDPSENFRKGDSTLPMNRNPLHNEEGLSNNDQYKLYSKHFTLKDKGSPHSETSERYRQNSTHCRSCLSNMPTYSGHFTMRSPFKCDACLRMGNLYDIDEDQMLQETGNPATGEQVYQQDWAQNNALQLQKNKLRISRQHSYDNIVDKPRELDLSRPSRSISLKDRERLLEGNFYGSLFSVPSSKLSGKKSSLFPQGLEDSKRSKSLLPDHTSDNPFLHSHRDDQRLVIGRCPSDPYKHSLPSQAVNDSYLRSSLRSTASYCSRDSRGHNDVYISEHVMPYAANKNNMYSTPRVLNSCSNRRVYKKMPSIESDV
T1 sequence (Q9R1M7 24-1135, other chains not shown): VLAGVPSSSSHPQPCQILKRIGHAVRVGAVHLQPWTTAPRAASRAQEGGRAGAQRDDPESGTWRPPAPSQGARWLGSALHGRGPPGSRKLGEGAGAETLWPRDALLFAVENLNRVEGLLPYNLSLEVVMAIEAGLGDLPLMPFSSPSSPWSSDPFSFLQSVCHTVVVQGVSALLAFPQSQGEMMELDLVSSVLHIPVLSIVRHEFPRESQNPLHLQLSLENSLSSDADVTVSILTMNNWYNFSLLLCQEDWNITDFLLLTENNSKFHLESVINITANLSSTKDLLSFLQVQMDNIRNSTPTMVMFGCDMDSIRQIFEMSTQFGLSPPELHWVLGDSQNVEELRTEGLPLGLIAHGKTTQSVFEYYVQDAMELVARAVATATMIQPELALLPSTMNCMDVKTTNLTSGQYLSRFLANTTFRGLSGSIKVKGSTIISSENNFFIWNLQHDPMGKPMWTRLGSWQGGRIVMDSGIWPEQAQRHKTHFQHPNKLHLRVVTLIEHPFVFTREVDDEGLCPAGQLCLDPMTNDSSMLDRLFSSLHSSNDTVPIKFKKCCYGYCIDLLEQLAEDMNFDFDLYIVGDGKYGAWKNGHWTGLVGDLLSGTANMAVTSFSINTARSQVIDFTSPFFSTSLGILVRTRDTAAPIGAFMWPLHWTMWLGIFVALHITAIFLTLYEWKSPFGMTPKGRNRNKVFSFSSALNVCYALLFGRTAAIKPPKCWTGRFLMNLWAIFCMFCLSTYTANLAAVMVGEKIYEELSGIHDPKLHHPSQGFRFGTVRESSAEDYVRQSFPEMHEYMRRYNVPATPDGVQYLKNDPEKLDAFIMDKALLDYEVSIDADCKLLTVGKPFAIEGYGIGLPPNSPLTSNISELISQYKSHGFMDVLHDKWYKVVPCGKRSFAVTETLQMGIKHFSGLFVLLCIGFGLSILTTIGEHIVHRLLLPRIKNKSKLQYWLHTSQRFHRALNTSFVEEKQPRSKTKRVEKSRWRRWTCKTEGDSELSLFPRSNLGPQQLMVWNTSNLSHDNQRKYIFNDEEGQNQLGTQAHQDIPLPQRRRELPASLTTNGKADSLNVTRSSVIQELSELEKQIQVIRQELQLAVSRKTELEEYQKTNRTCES

## O=C(Oc1cccc(F)c1OC(=O)c1cccc(O)c1)c1cccc(O)c1 [WZB117, 3-fluoro-1,2-phenylene bis(3-hydroxybenzoate)]
[1]
  I drug/I control: 0.18 ± 0.03
GluN1/GluN2A
  I drug/I cotrol: 0.84 ± 0.01
[2]
  inhibition of currents: relatively weak inhibition
